# Experimental data taken from paper PMC4646422 (ACS chemical biology, 2015).
# “And” between values parts separate entries of the source, which are not always exact repeats. Equal values may be shown once. Read-outs that look alike come from different tables or passages of the source.
# What was measured:
# [1] = biological target: malate dehydrogenase (MDH); experiment: Malate dehydrogenase; format: biochemical; details: for inhibition of MDH (in words): counter-screening enzyme
# [2] = format: physicochemical; details: for radius: DLS, 25 °C, at twice the compound's CAC; for radius / CAC (critical aggregation concentration): ND = not detected to precipitation limit; for CAC (critical aggregation concentration): dynamic light scattering, 50 mM KPi pH 7.0, 1% DMSO; for particle formation observed by DLS: up to solubility limits; for concentration at which the molecule may aggregate: authors' summary in the discussion
# P-glycoprotein = details: read-out: EC50, P-glycoprotein; representative literature value; cited from earlier work
# CYP3A4 = details: read-out: EC50, CYP3A4; representative literature value; cited from earlier work
# AmpC β-lactamase = AmpC β-lactamase (Escherichia coli, UniProt P00811); experiment: biochemical; format: biochemical; details: for inhibition of AmpC β-lactamase (in words): counter-screening enzyme; for IC50: IC50 vs AmpC β-lactamase
# Chain of AmpC β-lactamase (P00811 20-377): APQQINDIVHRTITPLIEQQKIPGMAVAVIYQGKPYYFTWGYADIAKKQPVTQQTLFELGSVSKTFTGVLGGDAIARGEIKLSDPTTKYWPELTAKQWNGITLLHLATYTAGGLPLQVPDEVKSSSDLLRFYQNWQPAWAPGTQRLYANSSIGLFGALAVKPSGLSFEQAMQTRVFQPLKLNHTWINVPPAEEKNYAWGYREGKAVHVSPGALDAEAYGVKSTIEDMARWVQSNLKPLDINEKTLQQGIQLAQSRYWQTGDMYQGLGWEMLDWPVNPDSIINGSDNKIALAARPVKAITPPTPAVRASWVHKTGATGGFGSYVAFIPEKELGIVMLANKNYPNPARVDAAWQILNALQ
# CDK2 = details: read-out: EC50, CDK2; representative literature value; cited from earlier work
# HIV-2 protease [3] = biological target: T1, HIV-2 protease (Human immunodeficiency virus type 2 subtype A, UniProt P04584); details: read-out: EC50, HIV-2 protease; representative literature value; cited from earlier work
# T1 sequence (P04584 514-612 limits assumed): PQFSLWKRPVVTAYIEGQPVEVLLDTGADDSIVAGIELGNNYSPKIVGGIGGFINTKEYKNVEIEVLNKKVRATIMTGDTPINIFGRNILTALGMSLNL
# Ca^2+-ATPase = details: read-out: EC50, Ca^2+-ATPase; representative literature value; cited from earlier work
# HIV-1 protease = details: read-out: EC50, HIV-1 protease; representative literature value; cited from earlier work
# HIV-2 protease [4] = biological target: T1, HIV-2 protease; experiment: HIV-2 protease inhibition assay; details: IC50 vs HIV-2 protease, 50 mM sodium acetate, pH 5.5, 200 mM sodium chloride
# GL01 = details: read-out: EC50, GL01; representative literature value; cited from earlier work
# [5] = biological target: Trypsin from porcine pancreas (Sus scrofa, UniProt P00761); experiment: Trypsin inhibition assay; format: biochemical; details: IC50 vs trypsin, 50 mM potassium phosphate
# Chain of Trypsin from porcine pancreas (P00761 9-231): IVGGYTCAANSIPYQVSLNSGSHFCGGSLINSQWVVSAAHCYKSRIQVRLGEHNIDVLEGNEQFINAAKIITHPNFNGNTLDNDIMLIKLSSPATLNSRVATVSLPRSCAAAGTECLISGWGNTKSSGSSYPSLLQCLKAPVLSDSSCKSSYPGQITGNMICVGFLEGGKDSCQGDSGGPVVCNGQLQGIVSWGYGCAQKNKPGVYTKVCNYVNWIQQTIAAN
# trypsin = details: read-out: EC50, trypsin; representative literature value; cited from earlier work
# MMP = details: read-out: EC50, MMP; representative literature value; cited from earlier work
# AMPK = details: read-out: EC50, AMPK; representative literature value; cited from earlier work
# 11 β HSD1 = details: read-out: EC50, 11 β HSD1; representative literature value; cited from earlier work
# DYRK1A and CLK1 = details: read-out: EC50, DYRK1A and CLK1; representative literature value; cited from earlier work
# ERR = details: read-out: EC50, ERR; representative literature value; cited from earlier work
# CDK = details: read-out: EC50, CDK; representative literature value; cited from earlier work
# OCT2 = details: read-out: EC50, OCT2; representative literature value; cited from earlier work
# MATE1 = details: read-out: EC50, MATE1; representative literature value; cited from earlier work
# hCNT = details: read-out: EC50, hCNT; representative literature value; cited from earlier work
# PTP1B = details: read-out: EC50, PTP1B; representative literature value; cited from earlier work
# ASICs = details: read-out: EC50, ASICs; representative literature value; cited from earlier work
# Hsp90 = details: read-out: EC50, Hsp90; representative literature value; cited from earlier work
# GLUT4 = details: read-out: EC50, GLUT4; representative literature value; cited from earlier work
# [6] = read-out: IC50 vs MDH, no detergent, 50 mM potassium phosphate, pH 7.0, ND = not detected to precipitation limit
# [7] = read-out: IC50 vs MDH, with detergent, 50 mM potassium phosphate, pH 7.0 + 0.01% (v/v) Triton X-100, ND = not detected to precipitation limit
# [8] = read-out: IC50 vs MDH, with DTT, with 1 mM DTT
# [9] = with detergent, pH 7.0 + 0.01% (v/v) Triton X-100
smiles,measurement,setting,value
Oc1ccc2c(c1)OC[C@]1(O)Cc3cc(O)c(O)cc3[C@H]21 [brazilin],IC50,[1]; [6],1.6 µM
same,IC50,[1]; [7],84 µM
same,radius,[2],52 ± 10 nm
same,CAC (critical aggregation concentration),[2],57 ± 7 µM
C[C@]12CC[C@H](O)C[C@H]1CC[C@@H]1[C@@H]2CC[C@]2(C)[C@@H](c3ccc(=O)oc3)CC[C@]12O [bufalin],IC50,[1]; [6],101 µM
same,IC50,[1]; [7],> 200 µM
same,radius,[2],1317 ± 394 nm
same,CAC (critical aggregation concentration),[2],51 ± 3 µM
same,EC50,P-glycoprotein,100 µM
same,EC50,CYP3A4,14.5 µM
COc1ccc2c(c1OC)CN1CCc3cc4c(cc3[C@@H]1C2)OCO4 [canadine],inhibition of AmpC β-lactamase (in words),AmpC β-lactamase,did not inhibit
same,inhibition of MDH (in words),[1],did not inhibit
same,radius,[2],52 ± 14 nm
same,CAC (critical aggregation concentration),[2],95 ± 11 µM
same,particle formation observed by DLS,[2],formed particles
same,EC50,CDK2,> 50 µM
COc1cc(/C=C/C(=O)CC(=O)/C=C/c2ccc(O)c(OC)c2)ccc1O [curcumin],IC50,"[1]; read-out: IC50 vs MDH, no DTT",9 µM
same,IC50,[1]; [6],9 µM
same,IC50,[1]; [8],10 µM
same,IC50,[1]; [7],> 30 µM
same,radius,[2],465 ± 30 nm
same,CAC (critical aggregation concentration),[2],17 µM and 17 ± 0.44 µM
same,EC50,HIV-2 protease [3],250 µM
same,EC50,Ca^2+-ATPase,~3 µM
same,EC50,HIV-1 protease,100 µM
same,IC50,"HIV-2 protease [4]; no detergent, 1 mM EDTA and 0.5 mM TCEP",19 µM
same,IC50,"HIV-2 protease [4]; with detergent, 1 mM EDTA and 0.5 mM TCEP + 0.01% (v/v) Triton X-100",> 100 µM
Oc1cc(O)c2cc(O)c(-c3cc(O)c(O)c(O)c3)[o+]c2c1 [delphinidin],IC50,[1]; [6],27 µM
same,IC50,[1]; [7],> 100 µM
same,particle formation observed by DLS,[2],no particles were observed
same,EC50,GL01,1.9 µM
COc1cc2c(O)c3c(c(-c4ccc5c(c4)OCO5)c2cc1OC)C(=O)OC3 [diphyllin],IC50,[1]; [6],49 µM
same,IC50,[1]; [7],> 200 µM
same,radius,[2],269 ± 49 nm
same,CAC (critical aggregation concentration),[2],40 ± 4.0 µM
Cc1cc(O)c2c(c1)C(=O)c1cc(O)cc(O)c1C2=O [emodin],IC50,AmpC β-lactamase; no DTT,27 µM
same,IC50,"AmpC β-lactamase; with DTT, with 1 mM DTT",17 µM
same,IC50,"[1]; read-out: IC50 vs MDH, no DTT",28 µM
same,IC50,[1]; [6],28 µM
same,IC50,[1]; [8],18 µM
same,IC50,[1]; [7],> 100 µM
same,IC50,"[5]; no detergent, pH 7.0",49 µM
same,IC50,[5]; [9],> 500 µM
same,radius,[2],231 ± 61 nm
same,CAC (critical aggregation concentration),[2],28 ± 2 µM
same,EC50,trypsin,50 µM
same,EC50,MMP,12.8 to 20.1 µM
same,EC50,AMPK,0.5 µM
same,EC50,11 β HSD1,4.2 to 7.2 µM
same,EC50,DYRK1A and CLK1,4.2 to 6.1 µM
Oc1ccc([C@H]2COc3cc(O)ccc3C2)cc1 [equol],concentration at which the molecule may aggregate,[2],≥ 100 µM
same,particle formation observed by DLS,[2],no particles were observed
same,EC50,ERR,5.8 µM
O=c1c(O)c(-c2ccc(O)cc2)oc2cc(O)cc(O)c12 [kaempferol],IC50,[1]; [6],61 µM
same,IC50,[1]; [7],> 100 µM
same,IC50,"[5]; no detergent, pH 7.0",110 µM
same,IC50,[5]; [9],> 250 µM
same,radius,[2],61 ± 20 nm
same,CAC (critical aggregation concentration),[2],81 ± 26 µM
same,EC50,CDK,2.5 to 51 µM
COc1ccc2c(c1OC)C(=O)O[C@@H]2[C@H]1c2c(cc3c(c2OC)OCO3)CCN1C [noscapine],inhibition of AmpC β-lactamase (in words),AmpC β-lactamase,no inhibition
same,inhibition of MDH (in words),[1],no inhibition
same,particle formation observed by DLS,[2],no particles were observed
same,EC50,OCT2,2.6 µM
same,EC50,MATE1,34.5 µM
O=C(CCc1ccc(O)cc1)c1c(O)cc(O)cc1O[C@@H]1O[C@H](CO)[C@@H](O)[C@H](O)[C@H]1O [phlorizin],inhibition of AmpC β-lactamase (in words),AmpC β-lactamase,no inhibition
same,inhibition of MDH (in words),[1],no inhibition
same,particle formation observed by DLS,[2],no particles were observed
same,EC50,hCNT,100 to 200 µM
COc1cc(O)c2c(c1)C(=O)c1cc(C)cc(O)c1C2=O [physcion],IC50,AmpC β-lactamase; no DTT,7 µM
same,IC50,"AmpC β-lactamase; with DTT, with 1 mM DTT",11 µM
same,IC50,"[1]; read-out: IC50 vs MDH, no DTT",11 µM
same,IC50,[1]; [6],11 µM
same,IC50,[1]; [8],8 µM
same,IC50,[1]; [7],> 20 µM
same,radius,[2],320 ± 83 nm
same,CAC (critical aggregation concentration),[2],0.32 ± 0.025 µM
same,EC50,PTP1B,20 µM
same,EC50,MMP,26.8 to 45.3 µM
O=c1c(-c2ccc(O)cc2)coc2c([C@@H]3O[C@H](CO)[C@@H](O)[C@H](O)[C@H]3O)c(O)ccc12 [puerarin],IC50,[1]; [6],135 µM
same,IC50,[1]; [7],156 µM
same,radius,[2],78 ± 25 nm
same,concentration at which the molecule may aggregate,[2],≥ 100 µM
same,CAC (critical aggregation concentration),[2],135 µM and 135 ± 40 µM
same,EC50,ASICs,38.4 µM
COc1cc(C2Oc3cc([C@H]4Oc5cc(O)cc(O)c5C(=O)[C@@H]4O)ccc3OC2CO)ccc1O (stereo partly shown) [silibinin],IC50,[1]; [6],12 µM
same,IC50,[1]; [7],> 100 µM
same,radius,[2],53 ± 16 nm
same,CAC (critical aggregation concentration),[2],0.47 ± 0.15 µM
same,EC50,Hsp90,250 µM
same,EC50,GLUT4,60 µM
